These results are taken from PubChem BioAssay (NCI).

Structures are written as SMILES.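 48-hour exposure; five concentrations; linearly interpolated endpoints. TGI denotes the concentration required for complete inhibition of growth.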

Some test systems named below: HCT-116 colon; UACC-62 melanoma; HT29 colon; MDA-MB-231 breast; HS 578T breast; SNB-19 CNS; SF-295 CNS; 786-0 renal; SK-MEL-2 melanoma; NCI-H23 lung; UACC-257 melanoma; T-47D breast; M14 melanoma; SF-539 CNS; RPMI-8226 leukemia.
Common to all, as to assay: DTP human tumour cell line panel, 48 h

What is called TGI is the concentration giving total growth inhibition. In the case of `NC1=NC(=O)[C@H](CSCc2ccccc2)N1C(=O)OCc1ccccc1`, the TGI in the assay with HCT-116 colon, with UACC-62 melanoma, in the assay with HT29 colon, with MDA-MB-231 breast, in the assay with HS 578T breast and in the assay on SNB-19 CNS was > 100 µM throughout. Moreover, the TGI in the assay with SF-295 CNS, in the assay on 786-0 renal, in the assay on SK-MEL-2 melanoma, in the assay on NCI-H23 lung and in the assay on UACC-257 melanoma was > 100 µM each time.
With `COc1ccc2c(c1)CC[C@@H]1C2CC[C@]2(C)C(=O)N(C)C(=O)CC12` (some centres undefined), the TGI with HCT-116 colon, with UACC-62 melanoma, in the assay with HT29 colon, with MDA-MB-231 breast, with HS 578T breast and in the assay with T-47D breast was > 100 µM each time. For the same compound, the TGI with SNB-19 CNS, in the assay with SF-295 CNS, in the assay with 786-0 renal, in the assay on M14 melanoma, in the assay on SF-539 CNS and with NCI-H23 lung was > 100 µM in each case. In the assay on UACC-257 melanoma, the TGI was > 100 µM.
Regarding `COc1ccc(/C=N/Nc2nc3ccccc3c(=O)n2-c2ccccc2)cc1`, the TGI with HCT-116 colon, with UACC-62 melanoma, in the assay with HT29 colon, in the assay on MDA-MB-231 breast, in the assay on T-47D breast and in the assay on SNB-19 CNS was > 100 µM each time. Also, the TGI in the assay on SF-295 CNS, with 786-0 renal, with M14 melanoma, in the assay on SF-539 CNS, with SK-MEL-2 melanoma and with NCI-H23 lung was > 100 µM in each case. In the assay on UACC-257 melanoma, the TGI is > 100 µM.
Consider `CCOC(=O)CC(=O)Nc1c(C(=O)OCC)sc2nc(SC)nc(Nc3ccc(OC)c(OC)c3)c12`, for which the TGI in the assay with HCT-116 colon was > 100 µM; in the assay with UACC-62 melanoma, > 100 µM; in the assay with HT29 colon, > 100 µM; in the assay on MDA-MB-231 breast it was > 100 µM; with HS 578T breast it was > 100 µM; in the assay on SF-295 CNS, 76.1 µM. Also, the TGI was 37 µM in the assay with 786-0 renal; > 100 µM with M14 melanoma; 69.2 µM with SF-539 CNS; > 100 µM in the assay with SK-MEL-2 melanoma; > 100 µM in the assay with NCI-H23 lung; > 100 µM with UACC-257 melanoma.
Consider `COc1cccc2c(=O)c3c(O)c4cc(N(C)C)ccc4c(OC(C)=O)c3oc12`, for which the TGI in the assay on HCT-116 colon was 26.8 µM; in the assay with UACC-62 melanoma, 28 µM; in the assay on HT29 colon it was 27.1 µM; with MDA-MB-231 breast it was 25 µM; in the assay on HS 578T breast it was 69.5 µM; in the assay with SNB-19 CNS, 91.6 µM. Further, the TGI in the assay with SF-295 CNS was > 100 µM; in the assay on 786-0 renal, 24 µM; in the assay with M14 melanoma it was 29.9 µM; in the assay with SF-539 CNS, 40.4 µM; with SK-MEL-2 melanoma, 46.9 µM; with NCI-H23 lung, 38.4 µM. For the same compound, the TGI in the assay on UACC-257 melanoma came to 32.2 µM; in the assay on RPMI-8226 leukemia, 52.6 µM.
As to `c1ccc2c(-c3ccnc(-c4c[nH]c5ccccc45)n3)c[nH]c2c1`, the TGI is 15.4 µM in the assay on HCT-116 colon; 7.33 µM with HT29 colon; > 100 µM in the assay with HS 578T breast; 26.9 µM in the assay with T-47D breast; > 100 µM in the assay on SNB-19 CNS; > 100 µM in the assay on SF-295 CNS. The TGI is 4.6 µM in the assay on 786-0 renal; > 100 µM in the assay with SF-539 CNS; > 100 µM in the assay on SK-MEL-2 melanoma; > 100 µM in the assay on UACC-257 melanoma; 4.61 µM in the assay on RPMI-8226 leukemia.
As for `CCOP(=O)(OCC)OC1CC(n2cnc3c(N(CC)CC)ncnc32)OC1CO[Si](C)(C)C(C)(C)C` (centres undefined), the TGI with HCT-116 colon came out at 30.6 µM; in the assay on UACC-62 melanoma, 28.2 µM; in the assay with HT29 colon, 35 µM; in the assay on HS 578T breast, 77.1 µM; in the assay on T-47D breast it was 27.8 µM; with SNB-19 CNS it was 33.7 µM. The TGI amounted to 31 µM with SF-295 CNS; 30 µM in the assay with 786-0 renal; 33.1 µM in the assay on M14 melanoma; 33.8 µM in the assay on SF-539 CNS; 45.6 µM in the assay with SK-MEL-2 melanoma; 37.2 µM in the assay on NCI-H23 lung. The TGI is 32.4 µM with UACC-257 melanoma and > 100 µM in the assay on RPMI-8226 leukemia.
With `CCOC(=O)c1c(C)n(-c2ccc(C)cc2)c2c1cc(O)c1[nH]c3c(c12)CCCC3`, the TGI in the assay with HCT-116 colon was 92.6 µM; in the assay with UACC-62 melanoma, 46.7 µM; in the assay on HT29 colon, 32.3 µM; with MDA-MB-231 breast, 81.7 µM; with T-47D breast it was > 100 µM; with SNB-19 CNS, 67.5 µM. Further, the TGI was determined as 65.2 µM with SF-295 CNS; 37.1 µM in the assay on 786-0 renal; 42.6 µM in the assay on M14 melanoma; 30.2 µM with SF-539 CNS; 33.7 µM in the assay on SK-MEL-2 melanoma; 67 µM in the assay with NCI-H23 lung. The TGI in the assay on UACC-257 melanoma stood at 56.7 µM; with RPMI-8226 leukemia, 24.8 µM.
With `CCOC(=O)C(NC(=O)Nc1ccccc1F)(OC)C(F)(F)F` (centres undefined), the TGI in the assay on HCT-116 colon, in the assay on HT29 colon, in the assay on HS 578T breast, with T-47D breast, in the assay with SNB-19 CNS and in the assay on 786-0 renal was > 100 µM each time. Further, the TGI in the assay with M14 melanoma, with SF-539 CNS, with SK-MEL-2 melanoma, with NCI-H23 lung, with UACC-257 melanoma and with RPMI-8226 leukemia was > 100 µM each time.
In the case of `N=C1SCCS1`, the TGI with HCT-116 colon, with UACC-62 melanoma, with HT29 colon, in the assay on SNB-19 CNS, in the assay with SF-295 CNS and with 786-0 renal was > 100 µM in each case. The TGI in the assay with M14 melanoma, in the assay with SF-539 CNS, with SK-MEL-2 melanoma, with NCI-H23 lung, with UACC-257 melanoma and with RPMI-8226 leukemia was > 100 µM each time.
With `CC(=O)/C(=C\n1c(=S)[nH]c2ccc([N+](=O)[O-])cc21)C(=O)Nc1ccccc1C`, the concentration for total growth inhibition (TGI) in the assay on HCT-116 colon, in the assay with UACC-62 melanoma, with HT29 colon, in the assay on MDA-MB-231 breast, with T-47D breast and in the assay on SF-295 CNS was > 100 µM in each case. Also, the TGI in the assay on 786-0 renal, in the assay on M14 melanoma, with SF-539 CNS, with SK-MEL-2 melanoma, in the assay with NCI-H23 lung and in the assay with UACC-257 melanoma was > 100 µM throughout. For the same compound, in the assay on RPMI-8226 leukemia, the TGI was > 100 µM.
